Test results: EP0952771B1, “NOVEL SAPONIN COMPOSITIONS AND USES THEREOF” (priority 1996, dated 1998)

How the values were obtained:
mice = conditions: mouse, in vivo; cited from earlier work
ovalbumin antigen = conditions: doses below 2.5 µg; cited from earlier work
E.G7-OVA target cells = experiment: Cytotoxic T lymphocyte (CTL) 51Cr cytotoxicity assay with splenic mononuclear cells of immunized mice; assay type: in vivo, C57BL/6 mice; conditions: subcutaneously at week 1, 3 and 5
Protocol: (§1) All experiments were carried out in C57BL/6 mice (female, 8-12 weeks of age). The synergistic adjuvant-effect of the QS-21/QS-7 mixtures was assessed by two parameters: (1) the ability of these mixtures to improve antibody titers to a subunit antigen, ovalbumin, in mice; and (2) the ability of these mixtures to improve an ovalbumin-specific cytotoxic T lymphocyte (killer cell) response in mice.
The experimental techniques were the following. The mice were immunized subcutaneously at week 1, 3, and 5 with 0.2 ml of the indicated formulations in phosphate-buffered saline. Mice were immunized in groups of five. Sera and spleens were harvested at weeks 7 to 9. Sera was assayed for anti-ovalbumin antibody response by enzyme immunoassay. Briefly, a 96 well Immulon plate was coated with 10 µg/ml ovalbumin in phosphate-buffered saline (PBS) overnight at 4°C. These plates were blocked with 10% normal goat serum in PBS (diluent) for one hour at room temperature. Serial 1:10 dilutions of serum were made in diluent and were incubated on the plates for one hour at room temperature or overnight at 4°C. An enzyme conjugate of anti-mouse IgG (or anti-mouse IgG subclass) was diluted in diluent and incubated on the plate. A colorimetric enzyme substrate, tetramethylbenzidine, was used to assay for binding of anti-ovalbumin antibody. Spleens from immunized mice were used to assay for the cytotoxic T lymphocyte (CTL) response. The effector cells for the (CTL) assay were splenic mononuclear cells from the harvested spleens. The antigen-positive target cells for the assay were E.G7-OVA cells, which are an MHC class II antigen-negative EL4 mouse cell line, transfected with the ovalbumin gene. […] EL4 cells were used as an ovalbumin-negative target cell line. Prior to assay, splenic mononuclear cells were stimulated with antigen to induce maturation of precursor CTL in the effector cell population. The antigens used for stimulation were mitomycin C treated E.G7-OVA cells (incubated with spleen cells at a ratio of 20:1 spleen cells: E.G7-OVA cells) or denatured ovalbumin (25 µg/ml). […]

anti-ovalbumin antibody = experiment: Anti-ovalbumin antibody response in serum by enzyme immunoassay; assay type: in vivo, C57BL/6 mice; conditions: 0.625 µg given individually; titer not higher than no adjuvant
Protocol: as §1
The experimental techniques were the following. The mice were immunized subcutaneously at week 1, 3, and 5 with 0.2 ml of the indicated formulations in phosphate-buffered saline. Mice were immunized in groups of five. Sera and spleens were harvested at weeks 7 to 9. Sera was assayed for anti-ovalbumin antibody response by enzyme immunoassay. Briefly, a 96 well Immulon plate was coated with 10 µg/ml ovalbumin in phosphate-buffered saline (PBS) overnight at 4°C. These plates were blocked with 10% normal goat serum in PBS (diluent) for one hour at room temperature. Serial 1:10 dilutions of serum were made in diluent and were incubated on the plates for one hour at room temperature or overnight at 4°C. An enzyme conjugate of anti-mouse IgG (or anti-mouse IgG subclass) was diluted in diluent and incubated on the plate. A colorimetric enzyme substrate, tetramethylbenzidine, was used to assay for binding of anti-ovalbumin antibody. […]

ovalbumin = conditions: at 2.5 µg or lower; cited from earlier work

Substance: QS-21
- toxicity in mice (mice): least toxic
- adjuvant for raising an antibody response to the ovalbumin antigen (ovalbumin antigen): ineffective
- stimulating a CTL response (E.G7-OVA target cells; saponin dose 0.625 µg given alone with ovalbumin): ineffective
- stimulating a CTL response (E.G7-OVA target cells; saponin dose 1.25 µg given alone with ovalbumin): ineffective
- stimulating a CTL response (E.G7-OVA target cells; saponin dose 20 µg given alone with ovalbumin): highly effective
- titer compared with no adjuvant (anti-ovalbumin antibody): suboptimal
- cytotoxic T lymphocyte (CTL) response to ovalbumin (ovalbumin): minimal
